Entries after “also recorded” stand apart in the source; their conditions may differ. Ends that are not written are not given here.
What was measured:
microorganisms [1] = experiment: Morphology, biofilm and growth disruption by peptides (Table 5); format: cell-based; set-up: key: A: Peptide aggregates; B: Less hyphal formation; Clumps; Diffuse clumps and small polyps; F: Diffuse growth; H: Thin; I: Growth inhibition; Microcolony formation; Rippled; Small polyps; Thick; W: Halo formation on top, microlonies on bottom
Source text: In certain embodiments peptides that induce alterations in phenotype or other biological activities can also be used as antimicrobial effector moieties.

microorganisms [2] = experiment: Peptide activities: binding, antimicrobial, growth or phenotype altering (Table 8)
Source text: In certain embodiments, peptides described herein can have multiple activities. Thus for example, a peptide can have both binding/targeting activity and antimicrobial activity. Such peptides can be used, e.g., in a chimeric construct, for any or all of these properties. Thus, for example, a peptide designated “B” in Table 8 can be used as a targeting peptide. If it is also designated G or M it can also be used for antimicrobial activity.

bacteria = experiment: Binding of targeting peptides to microorganisms (Table 3); conditions: preferably 1x PBS; for Target(s) (microorganism bound by the targeting peptide) / Target(s) (microorganisms bound by the targeting peptide): peptide binding in aqueous buffers that varied depending on peptide solubility; for Target(s): microorganism bound by the targeting peptide, binding in aqueous buffers chosen by peptide solubility

Substance: AL C SVIKAIEL GIINVHL Q [PF-366]
- Organism, effect (microorganisms [1]; C. jejuni): C. jejuni (D)
- Organism, effect (microorganisms [1]; E. coli): E. coli (C)
- Organism, effect (microorganisms [1]; E. faecalis): E. faecalis (C)
- Organism, effect (microorganisms [1]; MRSA): MRSA (D)
- Organism, effect (microorganisms [1]; P. aeruginosa): P. aeruginosa (A)
- Organism, effect (microorganisms [1]; S. epidermidis): S. epidermidis (R)
- Organism, effect (microorganisms [1]; S. pneumoniae): S. pneumoniae (C)
- Activities (microorganisms [2]): G B

Substance: PF-012 (WRGPNTEAGGKSANNIVQVGGAPT; Peptide with targeting and/or antimicrobial activity)
- Organism, effect (microorganisms [1]; C. jeikeium): C. jeikeium (A)
- Organism, effect (microorganisms [1]; M. luteus): M. luteus (C)
- Organism, effect (microorganisms [1]; MRSA): MRSA (R)
- Organism, effect (microorganisms [1]; S. epidermidis): S. epidermidis (S)
- Activities (microorganisms [2]): G B

Substance: PF-022 (MINELKNKNSGIMNNYVVTKESKL; Peptide with targeting and/or antimicrobial activity)
- Organism, effect (microorganisms [1]; C. jeikeium): C. jeikeium (A)
- Organism, effect (microorganisms [1]; M. luteus): M. luteus (A)
- Organism, effect (microorganisms [1]; MRSA): MRSA (R)
- Organism, effect (microorganisms [1]; S. epidermidis): S. epidermidis (D)
- Activities (microorganisms [2]): G B

Substance: PF-030 (MTCHQAPTTTHQSNMA; Peptide with targeting and/or antimicrobial activity)
- Organism, effect (microorganisms [1]; C. jeikeium): C. jeikeium (C)
- Organism, effect (microorganisms [1]; M. luteus): M. luteus (C)
- Organism, effect (microorganisms [1]; MRSA): MRSA (R)
- Organism, effect (microorganisms [1]; S. epidermidis): S. epidermidis (D)
- Activities (microorganisms [2]): G B

Substance: PF-042 (LLLSYFRYTGALLQSLF; Peptide with targeting and/or antimicrobial activity)
- Organism, effect (microorganisms [1]; C. jeikeium): C. jeikeium (S)
- Organism, effect (microorganisms [1]; M. luteus): M. luteus (C)
- Organism, effect (microorganisms [1]; MRSA): MRSA (R)
- Organism, effect (microorganisms [1]; S. epidermidis): S. epidermidis (D)
- Activities (microorganisms [2]): G B

Substance: PF-056 (AEQLFGKQKQRGVDLFLNRLTIILSILFFVLMICISYLGM; Peptide with targeting and/or antimicrobial activity)
- Organism, effect (microorganisms [1]; B. subtilis): B. subtilis (C)
- Organism, effect (microorganisms [1]; C. albicans): C. albicans (B)
- Organism, effect (microorganisms [1]; C. jeikeium): C. jeikeium (S)
- Organism, effect (microorganisms [1]; C. jejuni): C. jejuni (D)
- Organism, effect (microorganisms [1]; M. luteus): M. luteus (D)
- Organism, effect (microorganisms [1]; MRSA): MRSA (M)
- Organism, effect (microorganisms [1]; S. epidermidis): S. epidermidis (D)
- Organism, effect (microorganisms [1]; S. pneumoniae): S. pneumoniae (D)
- Activities (microorganisms [2]): G B

Substance: PF-057 (TMIVISIPRFEEYMKARHKKWM; Peptide with targeting and/or antimicrobial activity)
- Organism, effect (microorganisms [1]; C. albicans): C. albicans (A)
- Organism, effect (microorganisms [1]; C. jeikeium): C. jeikeium (A)
- Organism, effect (microorganisms [1]; C. jejuni): C. jejuni (D)
- Organism, effect (microorganisms [1]; E. coli): E. coli (M)
- Organism, effect (microorganisms [1]; E. faecalis): E. faecalis (A)
- Organism, effect (microorganisms [1]; M. luteus): M. luteus (C)
- Organism, effect (microorganisms [1]; MRSA): MRSA (M)
- Organism, effect (microorganisms [1]; S. epidermidis): S. epidermidis (D)
- Organism, effect (microorganisms [1]; S. pneumoniae): S. pneumoniae (R)
- Activities (microorganisms [2]): G B

Substance: PF-063 (IAAIIVLVLFQKGLLQIFNWILIQLQ; Peptide with targeting and/or antimicrobial activity)
- Organism, effect (microorganisms [1]; B. subtilis): B. subtilis (C)
- Organism, effect (microorganisms [1]; C. jeikeium): C. jeikeium (D)
- Organism, effect (microorganisms [1]; C. jejuni): C. jejuni (D)
- Organism, effect (microorganisms [1]; M. luteus): M. luteus (R)
- Organism, effect (microorganisms [1]; MRSA): MRSA (M)
- Organism, effect (microorganisms [1]; P. aeruginosa): P. aeruginosa (A)
- Organism, effect (microorganisms [1]; S. epidermidis): S. epidermidis (R)
- Organism, effect (microorganisms [1]; S. pneumoniae): S. pneumoniae (D)
- Activities (microorganisms [2]): G B

Substance: PF-068 (SHLINNFGLSVINPSTPICLNFSPVFNLLTVYGITCN; Peptide with targeting and/or antimicrobial activity)
- Organism, effect (microorganisms [1]; B. subtilis): B. subtilis (A)
- Organism, effect (microorganisms [1]; C. jeikeium): C. jeikeium (R)
- Organism, effect (microorganisms [1]; C. jejuni): C. jejuni (D)
- Organism, effect (microorganisms [1]; E. coli): E. coli (A)
- Organism, effect (microorganisms [1]; E. faecalis): E. faecalis (A)
- Organism, effect (microorganisms [1]; M. luteus): M. luteus (D)
- Organism, effect (microorganisms [1]; MRSA): MRSA (M)
- Organism, effect (microorganisms [1]; S. epidermidis): S. epidermidis (M)
- Organism, effect (microorganisms [1]; S. pneumoniae): S. pneumoniae (D)
- Activities (microorganisms [2]): G B

Substance: PF-124 (MADGQIAAIAKLHGVPVATRNIRHFQSFGVELINPWSG; Peptide with targeting and/or antimicrobial activity)
- Organism, effect (microorganisms [1]; C. jeikeium): C. jeikeium (R)
- Organism, effect (microorganisms [1]; S. epidermidis): S. epidermidis (C)
- Activities (microorganisms [2]): G B

Substance: PF-C143 (VVFGGGDRLV; Peptide with targeting and/or antimicrobial activity)
- Organism, effect (morphology, biofilm and growth disruption) (microorganisms [1]; F. nucleatum): F. nucleatum (C)
- Target(s) (microorganism bound by the targeting peptide) (bacteria): A. naeslundii; also recorded: F. nucleatum; also recorded: P. gingivalis; also recorded: S. mutans; also recorded: T. denticola

Substance: PF-C145 (YGKESDP; Peptide with targeting and/or antimicrobial activity)
- Organism, effect (morphology, biofilm and growth disruption) (microorganisms [1]; F. nucleatum): F. nucleatum (C)
- Organism, effect (morphology, biofilm and growth disruption) (microorganisms [1]; S. mutans): S. mutans (I)
- Target(s) (microorganism bound by the targeting peptide) (bacteria): A. naeslundii; also recorded: F. nucleatum; also recorded: P. gingivalis; also recorded: S. mutans; also recorded: T. denticola

Substance: PF-C180 (TVEELDKAFTWGAAAALAIGVIAINVGLAAGYCYNNNDVF; Peptide with targeting and/or antimicrobial activity)
- Organism, effect (morphology, biofilm and growth disruption) (microorganisms [1]; P. gingivalis): P. gingivalis (R)
- Organism, effect (morphology, biofilm and growth disruption) (microorganisms [1]; S. mutans): S. mutans (S)
- Target(s) (microorganism bound by the targeting peptide) (bacteria): F. nucleatum; also recorded: P. gingivalis; also recorded: S. mutans; also recorded: T. denticola

Substance: PF-C181 (KMRAGQVVFIYKLILVLLFYVLQKLFDLKKGCF; Peptide with targeting and/or antimicrobial activity)
- Organism, effect (morphology, biofilm and growth disruption) (microorganisms [1]; F. nucleatum): F. nucleatum (T)
- Target(s) (microorganism bound by the targeting peptide) (bacteria): P. gingivalis

Substance: PF-C291 (HPFLTGTGCPLFLIFRLFFVKAYFSFTVF; Peptide with targeting and/or antimicrobial activity)
- Organism, effect (morphology, biofilm and growth disruption) (microorganisms [1]; F. nucleatum): F. nucleatum (T)
- Organism, effect (morphology, biofilm and growth disruption) (microorganisms [1]; S. mutans): S. mutans (F)
- Target(s) (microorganism bound by the targeting peptide) (bacteria): A. naeslundii; also recorded: F. nucleatum; also recorded: P. gingivalis; also recorded: S. mutans

Substance: RESKLIAMADMIRRRI-NH2 [PF-545]
- Organism, effect (morphology, biofilm and growth disruption) (microorganisms [1]; B. subtilis): B. subtilis (I)
- Organism, effect (morphology, biofilm and growth disruption) (microorganisms [1]; C. albicans): C. albicans (B)
- Organism, effect (morphology, biofilm and growth disruption) (microorganisms [1]; C. jeikeium): C. jeikeium (H)
- Organism, effect (morphology, biofilm and growth disruption) (microorganisms [1]; E. faecalis): E. faecalis (H)
- Target(s) (microorganisms bound by the targeting peptide) (bacteria): S. epidermidis; also recorded: E. coli; also recorded: P. aeruginosa; also recorded: S. pneumoniae; also recorded: E. faecalis; also recorded: C. jeikeium

Substance: SFMPEIQKNTIPTQMK [PF-512]
- Organism, effect (morphology, biofilm and growth disruption) (microorganisms [1]; S. pneumoniae): S. pneumoniae (H)
- Target(s) (microorganisms bound by the targeting peptide) (bacteria): S. pneumoniae; also recorded: C. jeikeium

Substance: SIGSMIGMYSFRHKTKHIKFTFGIPFILFLQFLLVYFYILK [PF-319]
- Organism, effect (microorganisms [1]; B. subtilis): B. subtilis (C)
- Organism, effect (microorganisms [1]; S. epidermidis): S. epidermidis (C)
- Target(s) (bacteria): S. epidermidis; also recorded: B. subtilis; also recorded: C. difficile

Substance: SLQSQLGPCLHDQRH [PF-448]
- Organism, effect (morphology, biofilm and growth disruption) (microorganisms [1]; S. pneumoniae): S. pneumoniae (I)
- Target(s) (microorganisms bound by the targeting peptide) (bacteria): S. epidermidis; also recorded: M. luteus; also recorded: P. mirabilis; also recorded: E. coli; also recorded: S. pneumoniae; also recorded: E. faecalis; also recorded: C. jeikeium; also recorded: C. jejuni

Substance: VLPFPAIPLSRRRACVAAPRPRSRQRAS [PF-168]
- Organism, effect (microorganisms [1]; MRSA): MRSA (I)
- Organism, effect (microorganisms [1]; P. aeruginosa): P. aeruginosa (H)
- Target(s) (bacteria): S. epidermidis and M. luteus and E. coli and C. albicans and MRSA and C. jeikeium and C. jejuni

Substance: VMQSLYVKPPLILVTKLAQQN [PF-511]
- Organism, effect (morphology, biofilm and growth disruption) (microorganisms [1]; S. pneumoniae): S. pneumoniae (H)
- Target(s) (microorganisms bound by the targeting peptide) (bacteria): E. coli; also recorded: P. aeruginosa; also recorded: S. pneumoniae; also recorded: C. jeikeium

Substance: VWENRKKYLENEIERHNVFLKLGQEVIKGLNALASRGR [PF-257]
- Organism, effect (microorganisms [1]; M. luteus): M. luteus (R)
- Target(s) (bacteria): S. epidermidis

Substance: WSRVPGHSDTGWKVWHRW-NH2 [PF-547]
- Organism, effect (morphology, biofilm and growth disruption) (microorganisms [1]; B. subtilis): B. subtilis (I)
- Organism, effect (morphology, biofilm and growth disruption) (microorganisms [1]; E. faecalis): E. faecalis (R)
- Organism, effect (morphology, biofilm and growth disruption) (microorganisms [1]; MRSA): MRSA (M)
- Organism, effect (morphology, biofilm and growth disruption) (microorganisms [1]; S. epidermidis): S. epidermidis (R)
- Target(s) (microorganisms bound by the targeting peptide) (bacteria): S. epidermidis and E. coli and P. aeruginosa and C. albicans and MRSA and S. pneumoniae and E. faecalis
